# Where two headings read alike, the source gives them in different places.
# Assays:
# [1] = tested on: c-Myc expression; assay: c-Myc ELISA assay in 22RV1 cells; assay type: cell-based, human
# Method: It is composed of a BRD4-binding warhead which is connected to a VHL-binding warhead by a linear connector. […] Either the inhibition of BRD4 (by binding and blocking the active site of BRD4) or the degradation of BRD4 leads to the down-regulation of the expression level of a downstream protein c-Myc. […] MD simulation of a ternary system composed of BRD4 bromodomain 1, the ligand L and the complex of VHL with EB and EC in the presence of explicit water was performed.
# The connector linking the BRD-4 binding warhead and the cereblon-binding warhead was systematically probed from 2 to 8 atoms. For comparison, the parent inhibitor of BRD4 (compound JQ1) was also prepared. […] The expression level of a downstream protein c-Myc was measured. In this assay, either the inhibition of BRD4 (by binding and blocking the active site of BRD4) or the degradation of BRD4 leads to the down-regulation of the expression level of c-Myc.
# The connector linking the BRD4 warhead and the VHL-binding warhead was systematically probed from 5 to 19 atoms. […] The expression level of a downstream protein c-Myc was measured. In this assay, either the inhibition of BRD4 (e.g., by binding and blocking the active site of BRD4) or the degradation of BRD4 results in the down-regulation of the expression level of c-Myc.
# c-Myc ELISA Assay Protocol
# 22RV-1 cells were purchased from ATCC and cultured in RPMI+10% FBS media. Cells were harvested using trypsin (Gibco #25200-114), counted and seeded at 30,000 cells/well at a volume of 75 μL/well in RPMI+10% FBS media in 96-well plates. The cells were dosed with compounds diluted in 0.1% DMSO, incubated for 18h then washed and lysed in 50 uL RIPA buffer (50 mM Tris pH8, 150 mM NaCl, 1% Tx-100, 0.1% SDS, 0.5% sodium deoxycholate) supplemented with protease and phosphatase inhibitors. The lysates were clarified at 4000 rpm at 4° C. for 10 minutes then aliquots were added into a 96-well ELISA plate of Novex Human c-Myc ELISA kit from Life Technologies Catalog #KHO2041. 50 µL of c-Myc Detection antibody was added into every well, the plates incubated at room temperature for 3 hrs, then washed with ELISA wash buffer. 100 μL of the anti-rabbit IgG-HRP secondary antibody was added to each well and incubated at room temperature for 30 minutes. The plates were washed with ELISA wash buffer, 100 μL TMB added to each well, and then monitored every 5 minutes for a color change. 100 μL of stop solution is added and the plates read at 450 nm.
# [2] = target: T1, AR (Homo sapiens, UniProt P10275+P40337, T878A); assay: AR degradation in LNCaP cells (androgen receptor ELISA); assay type: cell-based; details: LNCaP cells; for DC50: read-out: AR degradation potency DC50
# T1 construct: degradation Dmax of AR in LNCaP cells; endogenous in cells; host or cells: LNCaP
# Method: The connector linking the AR-binding warhead and the VHL-binding warhead was systematically probed from 4 to 23 atoms. The AR degradation potency DC50 and the maximum percentage of degradation Dmax of AR in LNCaP cells were measured for each of these compounds. […] The binary binding potency with respect to AR was also measured for some of the compounds by the cell-based ligand (R1881) displacement assay. The ratio α between the AR-binding potency and the degradation potency are calculated when it is possible.
# Androgen Receptor ELISA Assay
# The protocols used with VCaP cells are described below. The androgen receptor ELISA assay was performed using PathScan AR ELISA (Cell Signaling Catalog #12850) according to the following assay steps: […]
# [3] = 22RV1 cells, connector composition changes, Table 4
# [4] = 22RV1 cells, connector composition changes, Table 4, read-out: c-Myc expression inhibition IC50
# [5] = 22RV1 cells, BRD4-cereblon series, Table 2
# [6] = 22RV1 cells, BRD4-cereblon series, Table 2, read-out: c-Myc expression inhibition IC50
# [7] = 22RV1 cells, BRD4-VHL series, Table 3
# [8] = 22RV1 cells, BRD4-VHL series, Table 3, read-out: c-Myc expression inhibition IC50
# T1 sequence (Q15370 whole entry): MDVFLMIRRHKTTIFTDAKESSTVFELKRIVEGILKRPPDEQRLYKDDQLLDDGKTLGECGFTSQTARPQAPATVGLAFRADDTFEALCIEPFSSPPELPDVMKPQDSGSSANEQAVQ
# T1 sequence (P40337 whole entry): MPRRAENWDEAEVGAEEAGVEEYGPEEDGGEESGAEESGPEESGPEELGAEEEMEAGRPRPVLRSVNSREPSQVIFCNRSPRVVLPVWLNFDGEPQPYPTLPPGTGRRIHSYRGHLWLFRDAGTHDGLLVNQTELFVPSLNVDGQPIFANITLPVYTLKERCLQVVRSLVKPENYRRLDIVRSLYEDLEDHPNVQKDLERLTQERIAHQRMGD
# T1 sequence (P10275 whole entry T878A): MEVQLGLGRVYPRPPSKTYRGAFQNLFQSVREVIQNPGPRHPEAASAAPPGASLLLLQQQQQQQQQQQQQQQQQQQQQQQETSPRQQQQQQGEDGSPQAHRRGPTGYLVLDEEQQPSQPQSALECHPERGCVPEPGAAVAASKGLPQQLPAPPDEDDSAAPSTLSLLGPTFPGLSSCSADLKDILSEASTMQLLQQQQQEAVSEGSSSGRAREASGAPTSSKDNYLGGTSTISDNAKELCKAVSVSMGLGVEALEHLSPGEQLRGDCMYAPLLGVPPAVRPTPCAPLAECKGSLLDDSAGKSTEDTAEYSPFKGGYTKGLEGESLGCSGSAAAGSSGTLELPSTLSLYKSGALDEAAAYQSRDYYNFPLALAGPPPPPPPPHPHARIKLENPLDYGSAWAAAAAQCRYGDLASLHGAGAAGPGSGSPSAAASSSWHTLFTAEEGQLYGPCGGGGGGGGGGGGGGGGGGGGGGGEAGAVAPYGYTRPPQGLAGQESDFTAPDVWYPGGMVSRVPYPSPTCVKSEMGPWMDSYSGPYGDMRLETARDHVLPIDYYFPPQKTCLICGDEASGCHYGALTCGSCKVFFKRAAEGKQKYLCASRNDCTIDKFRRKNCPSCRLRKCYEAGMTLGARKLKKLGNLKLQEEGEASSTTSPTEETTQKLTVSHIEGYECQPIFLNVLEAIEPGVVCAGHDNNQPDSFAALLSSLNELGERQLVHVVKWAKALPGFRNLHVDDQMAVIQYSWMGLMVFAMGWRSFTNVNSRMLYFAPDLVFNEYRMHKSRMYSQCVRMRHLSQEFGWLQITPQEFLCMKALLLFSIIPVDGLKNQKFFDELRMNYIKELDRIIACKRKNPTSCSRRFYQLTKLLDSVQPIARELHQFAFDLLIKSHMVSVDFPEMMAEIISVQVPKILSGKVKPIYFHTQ
# T1 sequence (Q15369 whole entry, further chain): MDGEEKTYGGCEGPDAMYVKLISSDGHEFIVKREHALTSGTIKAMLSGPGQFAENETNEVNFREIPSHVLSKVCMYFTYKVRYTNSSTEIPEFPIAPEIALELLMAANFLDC
smiles,measurement,setting,value
Cc1ncsc1-c1ccc(CNC(=O)[C@@H]2C[C@@H](O)CN2C(=O)[C@@H](NC(=O)COCCCCCCNC(=O)C[C@@H]2N=C(c3ccc(Cl)cc3)c3c(sc(C)c3C)-n3c(C)nnc32)C(C)(C)C)cc1 [Compound 41],maximum inhibition Imax,[1]; [3],100%
same,IC50,[1]; [4],25.7 nM
Cc1sc2c(c1C)C(c1ccc(Cl)cc1)=NC(CC(=O)NCCCNc1cccc3c1C(=O)N(C1CCC(=O)NC1=O)C3=O)c1nnc(C)n1-2 (mixture of isomers) [Compound 20],maximum inhibition Imax,[1]; [5],93%
same,IC50,[1]; [6],123 nM
Cc1sc2c(c1C)C(c1ccc(Cl)cc1)=NC(CC(=O)NCCOCCOCCNc1cccc3c1C(=O)N(C1CCC(=O)NC1=O)C3=O)c1nnc(C)n1-2 (mixture of isomers) [Compound 25],maximum inhibition Imax,[1]; [5],100%
same,IC50,[1]; [6],13 nM
Cc1sc2c(c1C)C(c1ccc(Cl)cc1)=NC(CC(=O)NCCCCNc1cccc3c1C(=O)N(C1CCC(=O)NC1=O)C3=O)c1nnc(C)n1-2 (mixture of isomers) [Compound 21],maximum inhibition Imax,[1]; [5],88%
same,IC50,[1]; [6],250 nM
Cc1ncsc1-c1ccc(CNC(=O)[C@@H]2C[C@@H](O)CN2C(=O)[C@@H](NC(=O)COCCCOCCNC(=O)C[C@@H]2N=C(c3ccc(Cl)cc3)c3c(sc(C)c3C)-n3c(C)nnc32)C(C)(C)C)cc1 [Compound 29],maximum inhibition Imax,[1]; [7],97%
same,IC50,[1]; [8],0.16 nM
same,maximum inhibition Imax,[1]; [3],97%
same,IC50,[1]; [4],0.16 nM
Cc1ncsc1-c1ccc(CNC(=O)[C@@H]2C[C@@H](O)CN2C(=O)[C@@H](NC(=O)COCCOCCNC(=O)C[C@@H]2N=C(c3ccc(Cl)cc3)c3c(sc(C)c3C)-n3c(C)nnc32)C(C)(C)C)cc1 [Compound 28],maximum inhibition Imax,[1]; [7],94%
same,IC50,[1]; [8],80.5 nM
Cc1ncsc1-c1ccc(CNC(=O)[C@@H]2C[C@@H](O)CN2C(=O)[C@@H](NC(=O)CCOCCCOc2ccc(N3C(=S)N(c4ccc(C#N)c(C(F)(F)F)c4)C(=O)C3(C)C)cc2)C(C)(C)C)cc1 [Compound 4],maximum AR degradation Dmax,[2],18%
same,DC50,[2],> 3000 nM
Cc1ncsc1-c1ccc(CNC(=O)[C@@H]2C[C@@H](O)CN2C(=O)[C@@H](NC(=O)CCCCCCCCNC(=O)C[C@@H]2N=C(c3ccc(Cl)cc3)c3c(sc(C)c3C)-n3c(C)nnc32)C(C)(C)C)cc1 [Compound 39],maximum inhibition Imax,[1]; [3],95.4%
same,IC50,[1]; [4],10.2 nM
Cc1ncsc1-c1ccc(CNC(=O)[C@@H]2C[C@@H](O)CN2C(=O)[C@@H](NC(=O)COCCCCNC(=O)C[C@@H]2N=C(c3ccc(Cl)cc3)c3c(sc(C)c3C)-n3c(C)nnc32)C(C)(C)C)cc1 [Compound 27],maximum inhibition Imax,[1]; [7],100%
same,IC50,[1]; [8],78 nM
Cc1ncsc1-c1ccc(CNC(=O)[C@@H]2C[C@@H](O)CN2C(=O)[C@@H](NC(=O)COCCCOCCCNC(=O)C[C@@H]2N=C(c3ccc(Cl)cc3)c3c(sc(C)c3C)-n3c(C)nnc32)C(C)(C)C)cc1 [Compound 30],maximum inhibition Imax,[1]; [7],100%
same,IC50,[1]; [8],19.4 nM
"Cc1sc2c(c1C)C(c1ccc(Cl)cc1)=N[C@@H](CC(=O)OC(C)(C)C)c1nnc(C)n1-2 [JQ1, reference compound]",maximum inhibition Imax,[1]; [5],93%
same,IC50,"[1]; Homo sapiens, 22Rv1, read-out: c-Myc expression IC50",101 nM
same,IC50,"[1]; Homo sapiens, 22Rv1, read-out: c-Myc expression inhibition IC50",101 nM
Cc1sc2c(c1C)C(c1ccc(Cl)cc1)=NC(CC(=O)NCCNc1cccc3c1C(=O)N(C1CCC(=O)NC1=O)C3=O)c1nnc(C)n1-2 (mixture of isomers) [Compound 19],maximum inhibition Imax,[1]; [5],96%
same,IC50,[1]; [6],187 nM
Cc1ncsc1-c1ccc(CNC(=O)[C@@H]2C[C@@H](O)CN2C(=O)[C@@H](NC(=O)COCCOCCOCCCCNC(=O)C[C@@H]2N=C(c3ccc(Cl)cc3)c3c(sc(C)c3C)-n3c(C)nnc32)C(C)(C)C)cc1 [Compound 33],maximum inhibition Imax,[1]; [7],97%
same,IC50,[1]; [8],5 nM
Cc1ncsc1-c1ccc(CNC(=O)[C@@H]2C[C@@H](O)CN2C(=O)[C@@H](NC(=O)COCCOCCOCCOCCNC(=O)C[C@@H]2N=C(c3ccc(Cl)cc3)c3c(sc(C)c3C)-n3c(C)nnc32)C(C)(C)C)cc1 [Compound 34],maximum inhibition Imax,[1]; [7],94%
same,IC50,[1]; [8],34 nM
Cc1ncsc1-c1ccc(CNC(=O)[C@@H]2C[C@@H](O)CN2C(=O)[C@@H](NC(=O)COCCCCOCCCCCOc2ccc(N3C(=S)N(c4ccc(C#N)c(C(F)(F)F)c4)C(=O)C3(C)C)cc2)C(C)(C)C)cc1 [Compound 10],maximum AR degradation Dmax,[2],77%
same,DC50,[2],60 nM
Cc1ncsc1-c1ccc(CNC(=O)[C@@H]2C[C@@H](O)CN2C(=O)[C@@H](NC(=O)COCCOCCCOc2ccc(N3C(=S)N(c4ccc(C#N)c(C(F)(F)F)c4)C(=O)C3(C)C)cc2)C(C)(C)C)cc1 [Compound 6],maximum AR degradation Dmax,[2],54%
same,DC50,[2],72 nM
Cc1sc2c(c1C)C(c1ccc(Cl)cc1)=NC(CC(=O)NCCOCCNc1cccc3c1C(=O)N(C1CCC(=O)NC1=O)C3=O)c1nnc(C)n1-2 (mixture of isomers) [Compound 23],maximum inhibition Imax,[1]; [5],100%
same,IC50,[1]; [6],0.682 nM
Cc1ncsc1-c1ccc(CNC(=O)[C@@H]2C[C@@H](O)CN2C(=O)[C@@H](NC(=O)COCCCS(=O)(=O)CCNC(=O)C[C@@H]2N=C(c3ccc(Cl)cc3)c3c(sc(C)c3C)-n3c(C)nnc32)C(C)(C)C)cc1 [Compound 42],maximum inhibition Imax,[1]; [3],88.3%
same,IC50,[1]; [4],122 nM
Cc1ncsc1-c1ccc(CNC(=O)[C@@H]2C[C@@H](O)CN2C(=O)[C@@H](NC(=O)COCCOCCOCCOCCOCCOCCNC(=O)C[C@@H]2N=C(c3ccc(Cl)cc3)c3c(sc(C)c3C)-n3c(C)nnc32)C(C)(C)C)cc1 [Compound 38],maximum inhibition Imax,[1]; [7],62.2%
same,IC50,[1]; [8],707 nM
Cc1ncsc1-c1ccc(CNC(=O)[C@@H]2C[C@@H](O)CN2C(=O)[C@@H](NC(=O)COCCOCCOCCCCOCCOCCNC(=O)C[C@@H]2N=C(c3ccc(Cl)cc3)c3c(sc(C)c3C)-n3c(C)nnc32)C(C)(C)C)cc1 [Compound 37],maximum inhibition Imax,[1]; [7],96.4%
same,IC50,[1]; [8],202 nM
Cc1sc2c(c1C)C(c1ccc(Cl)cc1)=NC(CC(=O)NCCCCCNc1cccc3c1C(=O)N(C1CCC(=O)NC1=O)C3=O)c1nnc(C)n1-2 (mixture of isomers) [Compound 22],maximum inhibition Imax,[1]; [5],100%
same,IC50,[1]; [6],3.79 nM
Cc1ncsc1-c1ccc(CNC(=O)[C@@H]2C[C@@H](O)CN2C(=O)[C@@H](NC(=O)COCCOCCOCCNC(=O)C[C@@H]2N=C(c3ccc(Cl)cc3)c3c(sc(C)c3C)-n3c(C)nnc32)C(C)(C)C)cc1 [Compound 31],maximum inhibition Imax,[1]; [7],99.3%
same,IC50,[1]; [8],1.22 nM
Cc1ncsc1-c1ccc(CNC(=O)[C@@H]2C[C@@H](O)CN2C(=O)[C@@H](NC(=O)COCCCOCCCCCNC(=O)C[C@@H]2N=C(c3ccc(Cl)cc3)c3c(sc(C)c3C)-n3c(C)nnc32)C(C)(C)C)cc1 [Compound 32],maximum inhibition Imax,[1]; [7],98%
same,IC50,[1]; [8],0.86 nM
Cc1ncsc1-c1ccc(CNC(=O)[C@@H]2C[C@@H](O)CN2C(=O)[C@@H](NC(=O)CCOCCOc2ccc(N3C(=S)N(c4ccc(C#N)c(C(F)(F)F)c4)C(=O)C3(C)C)cc2)C(C)(C)C)cc1 [Compound 3],maximum AR degradation Dmax,[2],56%
Cc1ncsc1-c1ccc(CNC(=O)[C@@H]2C[C@@H](O)CN2C(=O)[C@@H](NC(=O)COCCCNC(=O)C[C@@H]2N=C(c3ccc(Cl)cc3)c3c(sc(C)c3C)-n3c(C)nnc32)C(C)(C)C)cc1 [Compound 26],maximum inhibition Imax,[1]; [7],98%
same,IC50,[1]; [8],95 nM
Cc1ncsc1-c1ccc(CNC(=O)[C@@H]2C[C@@H](O)CN2C(=O)[C@@H](NC(=O)COCCCSCCNC(=O)C[C@@H]2N=C(c3ccc(Cl)cc3)c3c(sc(C)c3C)-n3c(C)nnc32)C(C)(C)C)cc1 [Compound 40],maximum inhibition Imax,[1]; [3],99%
same,IC50,[1]; [4],20.9 nM
